Source: patent publication US7521423B2, “Exendin pharmaceutical compositions” (Amylin Pharmaceuticals, Inc., priority 1996, dated 2009)
“Also recorded” adds a separate entry of the source. No end group written: not given here.

How the values were obtained:
[1] = test system: food intake; details: mice, peripheral injection; cited from earlier work
[2] = test system: pentagastrin-induced gastric acid secretion; details: reported, Gedulin et al. 1997; cited from earlier work
[3] = test system: gastric emptying; test: Gastric emptying in conscious rats, retention of phenol red methyl cellulose gel 20 min after gavage (Example 1); format: in vivo, Male Harlan Sprague Dawley (HSD) rats; details: for ED50 of inhibition of gastric emptying: Example 1, FIG. 2, subcutaneous injection, 20 min after gavage; for % remaining (percent of gastric contents remaining 20 minutes after gavage): normal rats; for effect on gastric emptying (in words): Example 1, dose-response study
Experimental: As described in Example 1, gastric emptying was measured in normal Sprague Dawley rats using the retention of an acaloric methylcellulose gel containing Phenol Red delivered by gavage. Dye content in stomachs removed after sacrifice 20 minutes later was determined spectroscopically, and was compared to that in rats sacrificed immediately after gavage to assess emptying.
This experiment followed a modification of the method of Scarpignato, et al., Arch. Int. Pharmacodyn. Ther. 246:286-94 (1980).
Male Harlan Sprague Dawley (HSD) rats were used. All animals were housed at 22.7±0.8 C in a 12:12 hour light:dark cycle (experiments being performed during the light cycle) and were fed and watered ad libitum (Diet LM-485, Teklad, Madison, Wis.).
The determination of gastric emptying by the method described below was performed after a fast of ˜20 hours to ensure that the stomach contained no chyme that would interfere with spectrophotometric absorbance measurements.
(§1) Conscious rats received by gavage, 1.5 ml of an acaloric gel containing 1.5% methyl cellulose (M-0262, Sigma Chemical Co, St Louis, Mo.) and 0.05% phenol red indicator. Twenty minutes after gavage, rats were anesthetized using 5% halothane, the stomach exposed and clamped at the pyloric and lower esophageal sphincters using artery forceps, removed and opened into an alkaline solution which was made up to a fixed volume. Stomach content was derived from the intensity of the phenol red in the alkaline solution, measured by absorbance at a wavelength of 560 nm. In separate experiments on 7 rats, the stomach and small intestine were both excised and opened into an alkaline solution. The quantity of phenol red that could be recovered from the upper gastrointestinal tract within 20 minutes of gavage was 89±4%; dye which appeared to bind irrecoverably to the gut luminal surface may have accounted for the balance. To account for a maximal dye recovery of less than 100%, percent of stomach contents remaining after 20 min were expressed as a fraction of the gastric contents recovered from control rats sacrificed immediately after gavage in the same experiment. Percent gastric contents remaining =(absorbance at 20 min)/(absorbance at 0 mm)×100.
In baseline studies, with no drug treatment, gastric emptying over 20 min was determined. […]

[4] = test system: gastric emptying; test: Antagonism by exendin[9-39] of gastric emptying inhibition by exendin-4 and GLP-1[7-36]NH2 (Example 3); format: in vivo, rats
Experimental: (sc), n=6; and 0.3 mg exendin[9-39] (sc), n=6 on the retention of gastric contents 20 minutes after gavage. Also shown are saline controls at t=0 and t=20 min. The error bars show standard error of the mean. […] Exendin[9-39] (sc) alone had no effect on gastric emptying.
(iv), n=5 on the retention of gastric contents 20 minutes after gavage. Also shown are saline controls at t+0 and t=20 min. The error bars show standard error of the mean.
(iv), n=3 on the retention of gastric contents 20 minutes after gavage. Also shown are saline controls at t=0 and t=20 min. The error bars show standard error of the mean. […] When injected along with GLP-1[7-36]NH2, exendin[9-39]
as §1
In these studies, exendin[9-39] was give both subcutaneously (sc) and intravenously (iv).

[5] = test system: gastric emptying; test: Gastric emptying inhibition by exendin-4 analogs, methods of Example 1 (Example 2); format: in vivo, Male HSD rats; details: for ED50 of inhibition of gastric emptying: Example 2, FIG. 3; for ED50 of inhibition of gastric emptying / EC50 (inhibition of gastric emptying): 20 min after gavage; for EC50 (inhibition of gastric emptying): Example 2, Table II; for effect on gastric emptying (in words): Example 2, dose-response study
Description: as §1, with “Twenty” for “Conscious rats received by gavage, 1.5 ml of an acaloric gel containing 1.5% methyl cellulose (M-0262, Sigma Chemical Co, St Louis, Mo.) and 0.05% phenol red indicator. Twenty”, “The quantity of phenol red that could be recovered from the upper gastrointestinal tract within 20 minutes of gavage was 89±4%; dye which appeared to bind irrecoverably to the gut luminal surface may have accounted for the balance.” left out

Substance: GLP-1[7-36]NH2 [GLP-1 (7-36)NH2]
- inhibition of food intake [1]: not observed
- inhibition of pentagastrin-induced gastric acid secretion [2]: inhibitory effect
- ED50 of inhibition of gastric emptying [3]: approximately 9 μg
- % remaining (percent of gastric contents remaining 20 minutes after gavage) ([3]; dose 0.100 μg): 42.00 (7) %
- % remaining (percent of gastric contents remaining 20 minutes after gavage) ([3]; dose 0.300 μg): 29.60 (7) %
- % remaining (percent of gastric contents remaining 20 minutes after gavage) ([3]; dose 1.000 μg): 37.20 (9) %
- % remaining (percent of gastric contents remaining 20 minutes after gavage) ([3]; dose 3.000 μg): 56.60 (10) %
- % remaining (percent of gastric contents remaining 20 minutes after gavage) ([3]; dose 10.000 μg): 87.90 (11) %
- % remaining (percent of gastric contents remaining 20 minutes after gavage) ([3]; dose 100.000 μg): 103.60 (7) %
- effect on retention of gastric contents 20 minutes after gavage ([4]; 10 μg GLP-1[7-36]NH2 (sc) alone, FIGS. 6 and 7): potently inhibited gastric emptying

Substance: exendin[9-39]
- effect on gastric emptying ([4]; 0.3 mg exendin[9-39] (sc) alone): no effect
- antagonism of the effect of exendin-4 on gastric emptying inhibition ([4]; 0.3 mg exendin[9-39] (sc) plus 1.0 μg exendin-4 (sc), FIG. 4): did not antagonize
- antagonism of the effect of exendin-4 on gastric emptying inhibition ([4]; 0.5 mg exendin[9-39] (iv) plus 0.3 μg exendin-4 (sc), FIG. 5): did not antagonize
- antagonism of the effect of GLP-1[7-36]NH2 on gastric emptying inhibition ([4]; 0.5 mg exendin[9-39] (iv) plus 10 μg GLP-1[7-36]NH2 (sc), FIG. 7): did not antagonize
- antagonism of the effect of GLP-1[7-36]NH2 on gastric emptying inhibition ([4]; 3 mg exendin[9-39] (sc) plus 10 μg GLP-1[7-36]NH2 (sc), FIG. 6): did not antagonize
- reversal / block of the effect of exendin-4 on gastric emptying ([4]; exendin[9-39] administered sc or iv, FIGS. 4 and 5): not reversed; also recorded: did not block
- block of the effect of GLP-1[7-36]NH2 on gastric emptying ([4]; exendin[9-39] sc or iv, FIGS. 6 and 7): did not block

Substance: rat amylin (KCNTATCATQRLANFLVRSSNNLGPVLPPTNVGSNTY; ends and bridges not checked; cysteine pairing not given here; UniProt P12969 38-74, looked up) [second positive control for gastric emptying]
- % remaining (percent of gastric contents remaining 20 minutes after gavage) ([3]; dose 0.010 μg): 37.60 (2) %
- % remaining (percent of gastric contents remaining 20 minutes after gavage) ([3]; dose 0.100 μg): 52.70 (6) %
- % remaining (percent of gastric contents remaining 20 minutes after gavage) ([3]; dose 0.300 μg): 58.20 (4) %
- % remaining (percent of gastric contents remaining 20 minutes after gavage) ([3]; dose 1.000 μg): 96.80 (9) %
- % remaining (percent of gastric contents remaining 20 minutes after gavage) ([3]; dose 3.000 μg): 108.000 (4) %
- % remaining (percent of gastric contents remaining 20 minutes after gavage) ([3]; dose 10.000 μg): 101.10 (6) %
- % remaining (percent of gastric contents remaining 20 minutes after gavage) ([3]; dose 100.000 μg): 101.20 (2) %

Substance: ^14Leu, ^25Phe exendin-4
- ED50 of inhibition of gastric emptying [5]: 0.29 µg
- EC50 (inhibition of gastric emptying) [5]: 0.29 µg
- effect on gastric emptying (in words) [5]: potent inhibitors of gastric emptying; also recorded: dose dependently inhibiting gastric emptying

Substance: exendin-4 acid
- ED50 of inhibition of gastric emptying [5]: 0.12 µg
- EC50 (inhibition of gastric emptying) [5]: 0.12 µg
- effect on gastric emptying (in words) [5]: potent inhibitors of gastric emptying; also recorded: dose dependently inhibiting gastric emptying

Substance: exendin-3
- ED50 of inhibition of gastric emptying [3]: ~0.1 µg
- effect on gastric emptying (in words) ([3]; listed as exendin 3): dose-dependently inhibited gastric emptying
- effect on gastric emptying (in words) ([3]; listed as exendin-3): potent inhibitors of gastric emptying
- % remaining (percent of gastric contents remaining 20 minutes after gavage) ([3]; dose 0.010 μg): 58.240 (3) %
- % remaining (percent of gastric contents remaining 20 minutes after gavage) ([3]; dose 0.100 μg): 70.770 (3) %
- % remaining (percent of gastric contents remaining 20 minutes after gavage) ([3]; dose 0.300 μg): 86.420 (3) %
- % remaining (percent of gastric contents remaining 20 minutes after gavage) ([3]; dose 1.000 μg): 95.330 (3) %
- % remaining (percent of gastric contents remaining 20 minutes after gavage) ([3]; dose 10.000 μg): 101.760 (3) %
- % remaining (percent of gastric contents remaining 20 minutes after gavage) ([3]; dose 100.000 μg): 103.640 (3) %
